From ChEMBL document CHEMBL5505960, “Synthesis and evaluation of butylphthalide-scutellarein hybrids as multifunctional agents for the treatment of Alzheimer's disease” (Eur J Med Chem, 2024)
The source made the active and inactive calls. The calls are words filed in the database; no cut-off is given here.

Tests used:
[1] = biological target: Amyloid-beta precursor protein (Homo sapiens) (UniProt P05067); assay: Inhibition of amyloid beta (1 to 42) (unknown origin) fibrillation assessed as reduction in Cu2+ induced shorter fibrils at 25 uM measured after 24 hrs by TEM analysis
Chain of Amyloid-beta precursor protein (Homo sapiens) (P05067 whole entry): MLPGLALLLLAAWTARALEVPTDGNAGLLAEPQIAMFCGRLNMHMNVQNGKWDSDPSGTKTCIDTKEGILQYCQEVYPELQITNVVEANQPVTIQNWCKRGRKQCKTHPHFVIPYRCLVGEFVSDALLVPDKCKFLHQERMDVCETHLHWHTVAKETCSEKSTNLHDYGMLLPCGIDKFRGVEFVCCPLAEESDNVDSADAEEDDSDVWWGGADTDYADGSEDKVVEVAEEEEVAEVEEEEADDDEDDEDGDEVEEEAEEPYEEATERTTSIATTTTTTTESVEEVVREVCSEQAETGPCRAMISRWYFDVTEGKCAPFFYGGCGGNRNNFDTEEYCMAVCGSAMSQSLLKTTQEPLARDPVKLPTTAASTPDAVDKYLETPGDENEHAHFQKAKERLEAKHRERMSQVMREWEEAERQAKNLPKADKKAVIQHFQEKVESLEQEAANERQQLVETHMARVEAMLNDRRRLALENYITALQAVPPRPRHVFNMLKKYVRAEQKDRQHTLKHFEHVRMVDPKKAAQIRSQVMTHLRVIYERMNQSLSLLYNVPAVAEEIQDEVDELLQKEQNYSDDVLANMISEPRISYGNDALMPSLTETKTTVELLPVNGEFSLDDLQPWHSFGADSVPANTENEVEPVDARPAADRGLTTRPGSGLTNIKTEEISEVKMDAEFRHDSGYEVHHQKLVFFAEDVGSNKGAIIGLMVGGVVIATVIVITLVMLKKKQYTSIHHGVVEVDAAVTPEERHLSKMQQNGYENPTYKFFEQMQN

BV-2 [2] = assay: Antineuroinflammatory activity in LPS-induced mouse BV-2 cells assessed as inhibition of IL-1 beta release preincubated for 30 mins followed by LPS stimulation and measured after 24 hrs; format: functional, cell-based; details: dose 0.5-10 µM, time 24.5 hrs
PC-12 [3] = assay: Neuroprotective activity against H2O2 induced rat PC12 cells assessed as increase in cell viability at 10 uM measured after 24 hrs by MTT assay relative to control; format: functional
Mus musculus [4] = assay: Neuroprotective activity in Sodium nitrite induced cognition impairement in C57BL/6 mouse model assessed as increase in SOD activity administered daily as IG for 7 days; format: functional, organism-based; details: dose 1.1-9.9 mg/kg, time 7.0 day
[5] = Metal chelating activity assessed as compound-Fe2+ complex formation by measuring bathochromic shift at 301 to 335nm in the presence of FeSO4 by UV-Visible spectrophotometric analysis
HT-22 [6] = assay: Neuroprotective activity against amyloid beta (1 to 42)-induced injury in mouse HT-22 cells assessed as reversal of reduced cell synapse length at 2.5 to 10 uM measured after 24 hrs […]; format: functional, cell-based; details: dose 2.5-10 µM
[7] = Metal chelating activity assessed as compound-Zn2+ complex formation by measuring bathochromic shift at 301 to 345nm in the presence of ZnCl2 by UV-Visible spectrophotometric analysis
[8] = biological target: Amyloid-beta precursor protein (Homo sapiens) (UniProt P05067); assay: Inhibition of Cu2+ induced amyloid beta (1 to 42)(unknown origin) fibrillation at 25 uM by ThT fluorescence assay relative to control
BV-2 [9] = assay: Antineuroinflammatory activity in LPS-induced mouse BV-2 cells assessed as inhibition of TNF-alpha release preincubated for 30 mins followed by LPS stimulation and measured after 24 hrs; format: functional, cell-based; details: dose 0.5-10 µM, time 24.5 hrs
[10] = Metal chelating activity assessed as compound-Al3+ complex formation by measuring hyperchromic shift in the presence of AlCl3 by UV-Visible spectrophotometric analysis
BV-2 [11] = assay: Antineuroinflammatory activity in LPS-induced mouse BV-2 cells assessed as inhibition of NO release at 2.5 uM preincubated for 30 mins followed by LPS stimulation and measured after 24 hrs relative to control; format: functional; design: scale not given: the % may be the effect or the level left; details: time 24.5 hrs
BV-2 [12] = assay: Antineuroinflammatory activity in LPS-induced mouse BV-2 cells assessed as inhibition of TNF-alpha release at 0.5 uM preincubated for 30 mins followed by LPS stimulation and measured after 24 hrs relative to control; format: functional; design: scale not given: the % may be the effect or the level left; details: time 24.5 hrs
[13] = Antioxidant activity assessed as inhibition of Cu2+-induced ROS production by measuring decrease in fluorescence intensity in presence of Cu2+ and ascorbate; format: functional
Mus musculus [14] = assay: Neuroprotective activity in C57BL/6 mouse assessed as amelioration of sodium nitrite induced memory impairement at 1.1 to 9.9 mg/kg, IG administered daily for 7 days; format: functional, organism-based; details: dose 1.1-9.9 mg/kg, time 7.0 day
[15] = Half life in Balb/C mouse plasma at 30 mg/kg, IG measured upto 8 hrs by LC-MS analysis; format: ADME, organism-based; details: po
[16] = Half life in Balb/C mouse brain at 30 mg/kg, IG measured upto 8 hrs by LC-MS analysis; format: ADME, organism-based; details: po
BV-2 [17] = assay: Antineuroinflammatory activity in LPS-induced mouse BV-2 cells assessed as inhibition of NO release at 10 uM preincubated for 30 mins followed by LPS stimulation and measured after 24 hrs relative to control; format: functional; design: scale not given: the % may be the effect or the level left; details: time 24.5 hrs
Mus musculus [18] = assay: Neuroprotective activity in Sodium nitrite induced cognition impairement in C57BL/6 mouse model assessed as improvement in step-down latency time at 1.1 to 9.9 mg/kg, IG administered daily for 7 days; format: functional, organism-based; details: dose 1.1-9.9 mg/kg, time 7.0 day
BV-2 [19] = assay: Cytotoxicity against LPS-induced mouse BV-2 cells assessed as cell viability at 0.5 to 10 uM incubated for 24 hrs by MTT assay; format: toxicity, cell-based; details: bv-2, 24 h, dose 0.5-10 µM
[20] = Metal chelating activity assessed as compound-Al3+ complex formation by measuring bathochromic shift at 301 to 330nm in the presence of AlCl3 by UV-Visible spectrophotometric analysis
BV-2 [21] = assay: Antineuroinflammatory activity in LPS-induced mouse BV-2 cells assessed as inhibition of ROS production preincubated for 30 mins followed by LPS stimulation and measured after 8 hrs by DCFH-DA staining based analysis; format: functional, cell-based; details: dose 2.5-10 µM, time 8.5 hrs
BV-2 [22] = assay: Antineuroinflammatory activity in LPS-induced mouse BV-2 cells assessed as inhibition of IL-1 beta release at 0.5 uM preincubated for 30 mins followed by LPS stimulation and measured after 24 hrs relative to control; format: functional; design: scale not given: the % may be the effect or the level left; details: time 24.5 hrs
BV-2 [23] = assay: Antineuroinflammatory activity in LPS-induced mouse BV-2 cells assessed as inhibition of NO release at 0.5 uM preincubated for 30 mins followed by LPS stimulation and measured after 24 hrs relative to control; format: functional; design: scale not given: the % may be the effect or the level left; details: time 24.5 hrs
[24] = Cmax in Balb/C mouse plasma at 30 mg/kg, IG measured upto 8 hrs by LC-MS analysis; format: ADME, organism-based; details: po
[25] = biological target: Amyloid-beta precursor protein (Homo sapiens) (UniProt P05067); assay: Inhibition of amyloid beta (1 to 42) (unknown origin) fibrillation assessed as decrease in thickness of amyloid beta fibrils at 25 uM measured after 24 hrs by TEM analysis
Mus musculus [26] = assay: Neuroprotective activity in Sodium nitrite induced cognition impairement in C57BL/6 mouse model assessed as increase in SOD activity at 5.0 mg/kg, IG administered daily for 7 days; format: functional, organism-based; details: time 7.0 day
[27] = Tmax in Balb/C mouse brain at 30 mg/kg, IG measured upto 8 hrs by LC-MS analysis; format: ADME, organism-based; details: po
[28] = Metal chelating activity assessed as compound-Cu2+ complex formation at stoichiometric ratio of 1:1 in presence of CuCl2 by UV-Vis spectrometry
[29] = AUC (0 to t) in Balb/C mouse plasma at 30 mg/kg, IG measured upto 8 hrs by LC-MS analysis; format: ADME, organism-based; details: po
Mus musculus [30] = assay: Neuroprotective activity against Abeta42 induced cognition impairement in AD mouse model assessed as improvement in latency time at 1.1 to 9.9 mg/kg, IG administered daily for 7 days by passive avoidance test; format: functional, organism-based; details: dose 1.1-9.9 mg/kg, time 7.0 day
BV-2 [31] = assay: Antineuroinflammatory activity in LPS-induced mouse BV-2 cells assessed as inhibition of IL-1 beta release at 10 uM preincubated for 30 mins followed by LPS stimulation and measured after 24 hrs relative to control; format: functional; design: scale not given: the % may be the effect or the level left; details: time 24.5 hrs
PC-12 [32] = assay: Neuroprotective activity against H2O2 induced rat PC12 cells assessed as increase in cell viability at 25 uM measured after 24 hrs by MTT assay relative to control; format: functional
BV-2 [33] = assay: Cytotoxicity against mouse BV-2 cells at upto 10 uM measured after 24 hrs by MTT assay; format: toxicity, cell-based; details: bv-2, 24 h
Mus musculus [34] = assay: Neuroprotective activity against Abeta42 induced cognition impairement in AD mouse model assessed as alleviation of learning deficit administered daily as IG for 7 days by passive avoidance test; format: functional, organism-based; details: time 7.0 day
Mus musculus [35] = assay: Neuroprotective activity against Abeta42 induced cognition impairement in AD mouse model assessed as reduction in number of error at 1.1 to 9.9 mg/kg, IG administered daily for 7 days by passive avoidance test; format: functional, organism-based; details: dose 1.1-9.9 mg/kg, time 7.0 day
HT-22 [36] = assay: Neuroprotective activity against amyloid beta (1 to 42) induced cell injury in mouse HT-22 cells assessed as cell viability at 50 uM incubated for 24 hrs by MTT assay; format: functional, cell-based

## CCCCCC1OC(=O)c2c1cc(OC)c(O)c2O (stereo unspecified)
[1]
  inhibition: Active
BV-2 [2]
  Activity: Dose-Dependent Effect
PC-12 [3]
  Activity: 80.7%
Mus musculus [4]
  Activity: Dose-Dependent Effect
[5]
  Activity: Active
HT-22 [6]
  Activity: Active
[7]
  Activity: Active
[8]
  inhibition: 35.4%
BV-2 [9]
  Activity: Dose-Dependent Effect
[10]
  Activity: Active
BV-2 [11]
  Activity: 47%
BV-2 [12]
  Activity: 20%
[13]
  Activity: Active
Mus musculus [14]
  Activity: Active
[15]
  half-life: 51 min
[16]
  half-life: 58.2 min
BV-2 [17]
  Activity: 77.3%
Mus musculus [18]
  Activity: Active
BV-2 [19]
  Activity: Non-Toxic
[20]
  Activity: Active
BV-2 [21]
  Activity: Dose-Dependent Effect
BV-2 [22]
  Activity: 36.6%
BV-2 [23]
  Activity: 31.1%
[24]
  Cmax: 879 ng/mL
[25]
  inhibition: Active
Mus musculus [26]
  Activity: inactive
[27]
  Tmax: 30 min
[28]
  Activity: Active
[29]
  AUC(0-t) at 8 h: 852 ng·h/mL
Mus musculus [30]
  Activity: Active
BV-2 [31]
  Activity: 62.9%
PC-12 [32]
  Activity: 83.9%
BV-2 [33]
  Activity: Non-Toxic
Mus musculus [34]
  Activity: Dose-Dependent Effect
Mus musculus [35]
  Activity: Active
HT-22 [36]
  Activity: Active
